Assay [1] concerns VDBA14 aptamer, 5'-Cy5-labeled (DNA, aptamer) AGCAGCACAGAGGTCATGGGGGGTGTGACTTTGGTGTGCCTATGCGTGCTACGGAA
Put plainly: microscale thermophoresis. The note with it: 100 mM NaCl, 5 mM KCl, 2 mM MgCl2, 1 mM CaCl2, 20 mM Tris-HCl pH 7.6, 10% ethanol, 35 °C.

Assay [2] deals with VDBA14 aptamer, immobilized on microarray (DNA, aptamer) AGCAGCACAGAGGTCATGGGGGGTGTGACTTTGGTGTGCCTATGCGTGCTACGGAA
Put plainly: microarray fluorescence, displacement of Cy5-oligonucleotide. The note with it: 100 mM NaCl, 5 mM KCl, 2 mM MgCl2, 1 mM CaCl2; 20 mM Tris-HCl pH 7.6; tracer displaced: 50 nM 5'-Cy5-AAAGTCACAC (O3); 78% maximal reduction at 2 μM.

The subject of assay [3] is VDBA14 aptamer, 5'-NH2-modified (in solution) (DNA, aptamer) AGCAGCACAGAGGTCATGGGGGGTGTGACTTTGGTGTGCCTATGCGTGCTACGGAA
Put plainly: microscale thermophoresis, displacement of Cy5-oligonucleotide. Conditions: 100 mM NaCl, 5 mM KCl, 2 mM MgCl2, 1 mM CaCl2, pH 7.6, 35 °C, tracer displaced: 10 nM 5'-Cy5-AAAGTCACAC (O3), 10 nM aptamer. On the technique in general: Microscale thermophoresis detects binding through changes in fluorescence in a small temperature gradient.

Take `C=C1CC[C@H](O)C/C1=C/C=C1\CCC[C@]2(C)[C@@H]([C@H](C)CCCC(C)(C)O)CC[C@@H]12`: the Kd (in general, the equilibrium constant for the complex coming apart) in assay [1] (no binding observed at room temperature) is reported as 14.99 nM. Moreover, the binding result in assay [2] is on record as “yes”. For the same compound, in assay [3], the apparent Kd (usually the concentration giving half-maximal binding under the conditions of the assay) was determined as 1 ± 0.18 nM.
For the compound `C=C1CC[C@H](O)C/C1=C/C=C1\CCC[C@]2(C)[C@@H]([C@H](C)CCCC(C)C)CC[C@@H]12`, the binding entry in assay [1] (highest concentration 10 μM) is recorded as “no”.
